Like-named read-outs stand apart in the source and are kept apart here.
Tests used:
[1] = system: RKO colon carcinoma cells with conditional p21^waf1 expression; assay: Cell cycle dependent cytotoxicity, RKO exop21 cell system; type: cell-based; conditions: Homo sapiens, 72 h
Method: (§1) The anti-proliferative activity of the histone deacetylase inhibitory compounds as described herein, is evaluated using the following cell lines: HeLa and HeLa-KB (cervical carcinoma), H460 (non small cell lung cancer), A549 (non-small cell lung cancer), MCF7 (breast carcinoma), MCF10A (normal, non tumorigenic breast epithelial), MDA-MB468 (breast carcinoma), MDA-MB435 (breast carcinoma), MDA-MB231 (breast carcinoma), SKBR-3 (breast carcinoma), SKOV-3 (ovarial carcinoma), A-2780 (ovarial carcinoma), RKO (colon carcinoma), HCT-15 (colon carcinoma), HCT-116 (colon carcinoma), PC3 (prostate carcinoma), BPH1 (benign prostate hyperplasia), AsPC1 (pancreatic carcinoma), Ca127 (tongue carcinoma), A-431 (vulva carcinoma), Hec1A (endometrial carcinoma), Saos-2 (osteosarcoma), U87MG (glioblastoma), WM266-4 (melanoma), K562 (chronic myeloid leukemia), EOL1 (acute hypereosinophilic myeloid leukemia), CCRF-CEM and CCRF-CEM VCR1000 (acute lymphoblastic leukemia sensitive and resistant towards Vincristine). For quantification of cellular proliferation/living cells the Alamar Blue (Resazurin) cell viability assay is applied (O'Brien et al. Eur J Biochem 267, 5421-5426, 2000). In this assay Resazurin is reduced to the fluorescent resorufine by cellular dehydrogenase activity, correlating with viable, proliferating cells. The examples are dissolved as 20 mM solutions in dimethylsulfoxide (DMSO) and subsequently diluted in semi-logarithmic steps. Cell lines are seeded at respective density into 96 well flat bottom plates in a volume of 200 μl per well. 24 h after seeding 1 μl each of the compound dilutions are added into each well of the 96 well plate. Each compound dilution is tested as quadruplicates. Wells containing untreated control cells are filled with 200 μl DMEM medium containing 0.5% v:v DMSO. The cells are then incubated with the compounds for 72 h at 37° C. in a humidified atmosphere containing 5% carbon dioxide. To determine the viability of the cells, 20 μl of a Resazurin solution (Sigma; 90 mg/l) are added. After 4 h incubation at 37° C. the fluorescence is measured at an extinction of λ=544 nm and an emission of λ=590 nm. For the calculation of the cell viability the emission value from untreated cells is set as 100% viability and the emission rates of treated cells are set in relation to the values of untreated cells. Viabilities are expressed as % values. The corresponding IC50 values of the compounds for cytotoxic activity are determined from the concentration-effect curves by means of non-linear regression.
For determination of cell-cycle dependent cytotoxicity, the RKO exop21 cell system is applied (Schmidt et al. Oncogene 19: 2423-2429, 2000). Briefly, RKO cells with/without p21^waf1 expression (2×10^4 cells/well induced, 6×10^3 cells/well not induced) are treated with the compounds for 72 h and metabolic activity quantified as described before. The expression of p21^waf1 was induced by treatment with Pronasterone A, causing a complete proliferation arrest of RKO cells in the G1 and G2 phases of the cell division cycle.

[2] = system: histone H3 hyperacetylation in HeLa cervical carcinoma cells; assay: Cellular histone H3 hyperacetylation assay; type: cell-based; conditions: Homo sapiens, 24 h treatment
Description: To assess the cellular efficacy of a histone deacetylase inhibitor in vitro, an assay is set up in black clear-bottom 96-well plates and optimized for use on the Cellomics “ArrayScan II” platform for a quantitative calculation of histone acetylation. The protocol uses a polyclonal rabbit antibody, specifically binding to acetylated lysine 1-20 (including K 9 and K14) of human histone H3 on fixed cells with an Alexa Fluor 488 labeled goat anti rabbit-IgG used for counterstaining 5×10^3 HeLa cervical carcinoma cells/well (ATCC CCL-2) in 200 μl Dulbecco's modified Eagle's medium (DMEM) containing 10% fetal calf serum are seeded at day 1 in Packard view plates and incubated for 24 h under standard cell culture conditions. On day 2, 1 μl test compound (200× final concentration) is added and incubation continued for further 24 h. On day 3, the culture medium is discarded and attached cells fixed for 15 min at room temperature by addition of 100 μl fixation buffer (3.7% v:v formaldehyde in phosphate buffered saline/PBS). After discarding the fixation buffer and one wash with blocking solution (1% BSA, 0.3% Tween 20 in PBS), cells are permeabilized at room temperature by addition of 100 μl /well permeabilization buffer (30.8 mM NaCl, 0.54 mM Na2HPO4, 0.31 mM KH2PO4, 0.1% v:v Triton X-100) for 15 min at room temperature. After discarding the permeabilization buffer and washing twice with 100 μl/well blocking solution at room temperature, the 1st antibody (anti-K1-20 histone H3 antibody, Calbiochem No. 382158) in blocking solution (50 μl/well) is added. After incubation for 1 h at room temperature, the wells are washed twice at room temperature with 100 μl/well blocking solution before addition of the 2nd antibody (goat-anti-rabbit Alexa Fluor 488; MoBiTec No. A -11008) in blocking solution (50 μl well). After further incubation for 1 h at room temperature, wells are washed twice with 100 μl/well blocking solution at room temperature. Finally, 100 μl/well PBS are added and image analysis performed on the Cellomics “ArrayScan II” platform. For EC50 determination, the percentage of positive cells showing nuclear fluorescence is determined and EC50 calculation done from concentration-effect curves by means of non-linear regression. For calibration, a positive (reference HDAC inhibitors like SAHA or NVP LBH-589) and a negative control were included.

[3] = system: fully transformed malignant cancer cell lines; assay: Anti-proliferative activity, selection of cell lines (Alamar Blue); type: cell-based; conditions: Homo sapiens, 72 h, mean over cell lines, read-out: Mean IC50 values as calculated for fully malignant cancer cell lines
Method: as §1
The anti-proliferative activity of compounds from examples 1, 2, 3, 12 and 150 is evaluated by using a broad selection of non-malignant cell lines and fully transformed malignant cancer cell lines.

[4] = system: A549 NSCLC cells; assay: Cellular cytotoxicity assay (Alamar Blue), A549; type: cell-based; conditions: Homo sapiens, 72 h, upper end given as ≧100, read-out: IC50 (μM), cytotoxicity towards A549 NSCLC cells
Outline: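 Cells were dosed 24 h after seeding with semi-log compound dilutions in quadruplicate, then incubated 72 h at 37 °C, 5% CO2. Viability read by Resazurin reduction (4 h, fluorescence 544/590 nm) relative to untreated 0.5% DMSO controls; IC50 by non-linear regression.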

[5] = molecular target: T1, HDAC11 (Homo sapiens, UniProt Q96DB2); conditions: Kalita et al. 2005; one range for HDAC1, 2, 3 and 11; cited from earlier work
T1 sequence (Q96DB2 1-347): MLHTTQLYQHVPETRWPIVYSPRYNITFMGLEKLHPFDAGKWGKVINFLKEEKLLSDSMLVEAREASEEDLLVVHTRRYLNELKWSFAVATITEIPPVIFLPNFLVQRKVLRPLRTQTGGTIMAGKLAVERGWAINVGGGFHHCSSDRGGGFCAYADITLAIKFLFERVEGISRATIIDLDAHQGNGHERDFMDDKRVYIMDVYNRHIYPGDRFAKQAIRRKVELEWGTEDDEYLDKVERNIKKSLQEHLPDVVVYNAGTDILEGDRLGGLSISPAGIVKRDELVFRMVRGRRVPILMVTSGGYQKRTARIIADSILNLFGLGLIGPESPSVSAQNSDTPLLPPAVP

[6] = system: HDACs 4 to 8; conditions: read-out: IC50 HDACs 4 to 8; Kalita et al. 2005; cited from earlier work
[7] = system: acute human T-lymphoblastic leukemia cell line CCRF-CEM; conditions: about 10.000 unique accession numbers, Peart et al. 2005; cited from earlier work

## Cc1ccc(S(=O)(=O)N2CCc3nc(C(=O)Nc4ccccc4N)sc3C2)cc1 [Example 150, N-(2-aminophenyl)-5-[(4-methylphenyl)sulfonyl]-4,5,6,7-tetrahydro[1,3]-thiazolo[5,4-c]pyridine-2-carboxamide]
[1]; RKO arrested, p21^waf1 expressed, read-out: RKO arrested (p21^waf1 expressed) IC50
  IC50: 1100 to 4900 nM
[1]; RKO proliferating, p21^waf1 not induced, read-out: RKO proliferating IC50
  IC50: 1100 to 4000 nM
[2]; read-out: EC50, induction of histone H3 hyperacetylation
  EC50: 0.15 to 15 µM
[2]; read-out: −lg EC50, induction of histone H3 hyperacetylation
  EC50: 0.251 to 15.8 µM
[3]
  IC50: 2.4 to 5.4 µM
[4]
  IC50: ≥ 0.2 µM

## Nc1ccccc1NC(=O)c1ccc(CNc2nccc(-c3cccnc3)n2)cc1 [MGCD0103]
[5]
  IC50: 100 to 2000 nM
[6]
  IC50: > 20 µM

## O=C(CCCCCCC(=O)Nc1ccccc1)NO [SAHA, suberoylanilide hydroxamic acid]
[7]
  share of analyzed genes whose expression was changed: 22.1%
